Measured values reported in PubChem BioAssay (NCI).
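Cells were grown in 96-well plates and exposed to each compound for 48 hours at five concentrations; endpoints were interpolated linearly between bracketing concentrations, or set to the highest concentration if not reached. GI50 is the concentration that inhibits growth by half. The concentration for full growth arrest is given as TGI.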

Tests used:
Assay in all cases: inhibition of tumour cell growth, NCI panel, 48 h
CCRF-CEM leukemia = system: CCRF-CEM leukemia
OVCAR-4 ovarian = system: OVCAR-4 ovarian
M14 melanoma = system: M14 melanoma
BT-549 breast = system: BT-549 breast
SNB-19 CNS = system: SNB-19 CNS
RXF 393 renal = system: RXF 393 renal
NCI-H522 lung = system: NCI-H522 lung
DLD-1 colon = system: DLD-1 colon
DMS 114 small cell lung = system: DMS 114 small cell lung
HOP-18 NSCLC = system: HOP-18 NSCLC

`O=C1CC(=O)N(C(=O)c2nn(-c3ccc(Cl)cc3)cc2O)N1` was tested, and the GI50 (CCRF-CEM leukemia) was 0.41 µM, the TGI (CCRF-CEM leukemia) was 16.7 µM and the GI50 (OVCAR-4 ovarian) was 1.51 µM. The TGI (OVCAR-4 ovarian) was over 100 µM, the GI50 (M14 melanoma) was 0.651 µM and the TGI (M14 melanoma) was 27.8 µM. For the same compound, the GI50 (BT-549 breast) was 0.296 µM, the TGI (BT-549 breast) was over 64.5 µM and the GI50 (SNB-19 CNS) was 0.5 µM. For the same compound, the TGI (SNB-19 CNS) was over 100 µM, the GI50 (RXF 393 renal) was 0.191 µM and the TGI (RXF 393 renal) was over 47 µM. The GI50 (NCI-H522 lung) was 0.299 µM and the TGI (NCI-H522 lung) was 3.17 µM.

For `COc1cc(N2CCC(N3CCN(C)CC3)CC2)ccc1Nc1ncnc(Nc2ccccc2S(=O)(=O)C(C)C)n1`, the GI50 (CCRF-CEM leukemia) was 5.84 µM, the TGI (CCRF-CEM leukemia) was over 42.7 µM and the GI50 (OVCAR-4 ovarian) was 8.93 µM. The TGI (OVCAR-4 ovarian) was 42.2 µM, the GI50 (M14 melanoma) was 4.07 µM and the TGI (M14 melanoma) was 16.6 µM. The GI50 (BT-549 breast) was 18.4 µM, the TGI (BT-549 breast) was 44.7 µM and the GI50 (SNB-19 CNS) was 4.98 µM. It also gave a TGI (SNB-19 CNS) of over 69.3 µM, a GI50 (RXF 393 renal) of 3.42 µM and a TGI (RXF 393 renal) of 17.3 µM. The GI50 (NCI-H522 lung) was 4.65 µM and the TGI (NCI-H522 lung) was 14 µM.

`C/C(=N\Nc1cc(C)c2ccccc2n1)c1ccccn1` gave a GI50 (CCRF-CEM leukemia) of under 0.0269 µM, a TGI (CCRF-CEM leukemia) of 0.571 µM and a TGI (OVCAR-4 ovarian) of 2.22 µM. The GI50 (M14 melanoma) was 0.066 µM, the TGI (M14 melanoma) was 1.2 µM and the GI50 (BT-549 breast) was 0.301 µM. It also gave a TGI (BT-549 breast) of 15.7 µM, a GI50 (SNB-19 CNS) of 0.159 µM and a TGI (SNB-19 CNS) of 13.6 µM. The GI50 (RXF 393 renal) was 0.29 µM, the TGI (RXF 393 renal) was 1.82 µM and the GI50 (NCI-H522 lung) was 0.0534 µM. The TGI (NCI-H522 lung) was 0.319 µM.

`CCN(Cc1ccccc1)c1ccc(CO)c(Cl)c1` was tested, and the GI50 (CCRF-CEM leukemia) was 23.3 µM, the TGI (CCRF-CEM leukemia) was over 100 µM and the GI50 (OVCAR-4 ovarian) was 0.416 µM. For the same compound, the TGI (OVCAR-4 ovarian) was 12.1 µM, the GI50 (M14 melanoma) was 20.1 µM and the TGI (M14 melanoma) was over 65.1 µM. For the same compound, the GI50 (BT-549 breast) was 14.1 µM, the TGI (BT-549 breast) was 44.6 µM and the GI50 (SNB-19 CNS) was 51.4 µM. For the same compound, the TGI (SNB-19 CNS) was over 100 µM, the GI50 (RXF 393 renal) was 6.01 µM and the TGI (RXF 393 renal) was over 49.7 µM. It also gave a GI50 (NCI-H522 lung) of 17.4 µM and a TGI (NCI-H522 lung) of 63.4 µM.

`CC(=O)OC[C@]1(C)CCCC2(C)C1CCC1C=C(C)[C@H]3CCC12C3` (stereo not given in full) was tested, and the TGI (CCRF-CEM leukemia) was over 100 µM, the TGI (DLD-1 colon) was over 100 µM and the TGI (OVCAR-4 ovarian) was over 100 µM. It also gave a TGI (M14 melanoma) of over 100 µM, a TGI (SNB-19 CNS) of over 100 µM and a TGI (RXF 393 renal) of over 100 µM. For the same compound, the TGI (NCI-H522 lung) was 75 µM.

Work on `COc1ccc(-c2oc(=O)ccc2-c2cc(OC)c(OC)c(OC)c2)cc1O` yielded a GI50 (CCRF-CEM leukemia) of 2.07 µM, a TGI (CCRF-CEM leukemia) of 18.9 µM and a GI50 (OVCAR-4 ovarian) of 6.65 µM. The TGI (OVCAR-4 ovarian) was over 100 µM, the GI50 (M14 melanoma) was 0.833 µM and the TGI (M14 melanoma) was 30.4 µM. It also gave a GI50 (BT-549 breast) of 1.52 µM, a TGI (BT-549 breast) of over 38.5 µM and a GI50 (SNB-19 CNS) of 4.76 µM. For the same compound, the TGI (SNB-19 CNS) was over 100 µM, the GI50 (RXF 393 renal) was 0.795 µM and the TGI (RXF 393 renal) was 3.76 µM. For the same compound, the GI50 (NCI-H522 lung) was 0.425 µM and the TGI (NCI-H522 lung) was 3.45 µM.

`CC(C)(C)CC(C)(C)c1cc2c(O)c(c1)Cc1cc(C(C)(C)CC(C)(C)C)cc(c1O)Cc1cc(C(C)(C)CC(C)(C)C)cc(c1O)Cc1cc(C(C)(C)CC(C)(C)C)cc(c1O)Cc1cc(C(C)(C)CC(C)(C)C)cc(c1O)C2` was tested, and the TGI (CCRF-CEM leukemia) was over 100 µM, the TGI (DMS 114 small cell lung) was over 100 µM and the TGI (DLD-1 colon) was over 100 µM. It also gave a TGI (OVCAR-4 ovarian) of over 100 µM, a TGI (M14 melanoma) of over 100 µM and a TGI (SNB-19 CNS) of over 100 µM. It also gave a TGI (RXF 393 renal) of over 100 µM and a TGI (NCI-H522 lung) of over 100 µM.

Compound `O=C(O)Cc1cc(=O)[nH]c2c1/C(=N/O)CCC2` has a TGI (CCRF-CEM leukemia) of over 100 µM, a TGI (DLD-1 colon) of over 100 µM and a TGI (M14 melanoma) of over 100 µM. For the same compound, the TGI (SNB-19 CNS) was over 100 µM, the TGI (RXF 393 renal) was over 100 µM and the TGI (NCI-H522 lung) was over 100 µM. For the same compound, the TGI (HOP-18 NSCLC) was over 100 µM.

`CC(=O)[CH-]C(=O)c1ccccc1.CC(=O)[CH-]C(=O)c1ccccc1.CC(C)CCCC(C)[C@H]1CCC2[C@@H]3CC=C4C[C@@H]([O-])CC[C@]4(C)C3CC[C@@]21C.CC(C)CCCC(C)[C@H]1CCC2[C@@H]3CC=C4C[C@@H]([O-])CC[C@]4(C)C3CC[C@@]21C.[Ti+4]` (stereo not given in full) showed a GI50 (CCRF-CEM leukemia) of over 100 µM, a TGI (CCRF-CEM leukemia) of over 100 µM and a GI50 (DLD-1 colon) of over 100 µM. It also gave a TGI (DLD-1 colon) of over 100 µM, a GI50 (OVCAR-4 ovarian) of over 100 µM and a TGI (OVCAR-4 ovarian) of over 100 µM. The GI50 (M14 melanoma) was over 100 µM, the TGI (M14 melanoma) was over 100 µM and the GI50 (RXF 393 renal) was over 100 µM. The TGI (RXF 393 renal) was over 100 µM, the GI50 (NCI-H522 lung) was over 100 µM and the TGI (NCI-H522 lung) was over 100 µM. For the same compound, the GI50 (HOP-18 NSCLC) was over 100 µM and the TGI (HOP-18 NSCLC) was over 100 µM.
